Reference: patent US11083793B2, “Epidermal growth factor receptor (EGFR) targeted photosensitizers” (Health Research, Inc., priority 2016, dated 2021)

Columns and labels:
ABCG2 [1] = target: T1, ABCG2 (Homo sapiens, UniProt Q9UNQ0); assay: In vitro PDT efficacy with/without Gleevec (MTT), UMUC3; assay type: cell-based; settings: UMUC3 cells
T1 construct: endogenous in cells; host or cells: UMUC3 bladder cancer cells
T1 sequence (Q9UNQ0 1-655): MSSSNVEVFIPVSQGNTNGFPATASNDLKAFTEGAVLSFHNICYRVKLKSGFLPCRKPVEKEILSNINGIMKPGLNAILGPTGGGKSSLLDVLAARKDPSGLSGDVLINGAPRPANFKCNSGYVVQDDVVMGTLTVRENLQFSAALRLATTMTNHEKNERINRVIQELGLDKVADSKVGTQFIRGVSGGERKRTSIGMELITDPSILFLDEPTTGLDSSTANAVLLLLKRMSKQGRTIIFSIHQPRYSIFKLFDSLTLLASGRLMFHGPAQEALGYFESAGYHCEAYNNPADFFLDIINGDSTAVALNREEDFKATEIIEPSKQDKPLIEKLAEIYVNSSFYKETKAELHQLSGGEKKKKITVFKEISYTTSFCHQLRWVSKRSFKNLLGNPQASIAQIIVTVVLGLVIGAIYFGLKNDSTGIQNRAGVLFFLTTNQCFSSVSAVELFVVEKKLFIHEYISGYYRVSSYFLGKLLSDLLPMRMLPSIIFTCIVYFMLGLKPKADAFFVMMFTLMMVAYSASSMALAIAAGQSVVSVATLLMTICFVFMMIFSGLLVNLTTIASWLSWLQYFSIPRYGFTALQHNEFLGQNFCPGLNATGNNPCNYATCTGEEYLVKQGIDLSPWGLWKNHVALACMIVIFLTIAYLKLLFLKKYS
Excerpt: (§1) C1e. In contrast to PS 1 and 2, the PS- erlotinib conjugate 3 is not the substrate of ABCG2: The influence of PS as substrate for ABCG2 transport was observed by fluorescent microscopy. […] This information is very interesting as it could help to select an effective treatment option to cancer patients with and without expression of ABCG2 transporter.

ABCG2 [2] = assay: ABCG2 substrate specificity: PS uptake with/without Gleevec, T24; assay type: cell-based; settings: T24 cells (lack ABCG2); PS 500 nM; Gleevec 5 μM; fluorescence
Excerpt: (§2) T24 cells lack ABCG2 expression.
as §1

HNSCC cells = assay: 3-D co-culture of HN-85-1-3 and tumor stromal cells; assay type: cell-based; settings: 1600 nM, 24 h, then 48 h in medium
Protocol: The cells were washed free of PS and incubated for additional 48 h in medium. The fluorescence for CSFE stromal cells and PS fluorescence was recorded in an inverted fluorescent microscope.
The tumor specificity of the compounds was also confirmed in head & neck cancer using 3D culture system.

UMUC3 tumors [3] = assay: In vivo uptake in tumor, liver and skin (IVIS), UMUC3 tumors; design: species or system SCID mice; settings: UMUC3 tumor model; 0.47 μmol/kg
Protocol: C1i. PS with and without erlotinib show high tumor-uptake and significant difference in their pharmacokinetic profiles in UMUC3 and T24 tumors implanted in SCID mice: The SCID mice bearing either UMUC3 or T24 tumors (4-5 mm size) were injected with the PS 30, and the corresponding erlotinib conjugates 6, 34 & 39 with and without iodine functionality. Among the iodinated analogs, the iodobenzyl group was introduced either at the bottom half of 5 or top half of the molecule 39, and were converted into the corresponding radioactive (^124I-) analogs for PET imaging. The non-radioactive analogs were injected in tumored mice (3 mice/group) at a dose of 0.47 μmol/kg), and the mice were imaged at regular time intervals. The dose was selected on the basis of the therapeutic dose of HPPH. The uptake of tumor, liver and skin was measured by IVIS system (3 mice group), and interesting pharmacokinetic profiles of the PS were observed (FIG. 8).
C1j. […] Therefore, the tumors were exposed to light at their optimal uptake time points respectively.

UMUC3 tumors [4] = assay: HPPH-PDT in combination with BCG, UMUC3 tumors; assay type: in vivo, mice; settings: HPPH 0.47 μmol/kg in combination with BCG (1-1.5×10^6 CFU SQ weekly×3); 135 J/cm^2, 75 mW/cm^2 at 6 h
Protocol: For details see the text.
One hour after the PDT treatment, BCG was injected (1-1.5×10^6 CFU), SQ weekly×3 doses, and the day 30 data summarized in FIG. 11, are very encouraging.

ABCG2 [5] = target: T1, ABCG2; assay: ABCG2 substrate specificity: PS uptake with/without Gleevec, UMUC3; assay type: cell-based; settings: UMUC3 cells; PS 500 nM; Gleevec 5 μM; fluorescence
Excerpt: as §2, §1

HN-85-1-3 cells = assay: Growth inhibition of EGF-dependent HNSCC cell cultures; assay type: cell-based; settings: 3.2 μM, 72 h, RPMI+10% FBS; preliminary experiments
Protocol: HN-85-1-3 cells were cultured of 72 h in regular growth medium (RPMI+10% FBS) and containing 3.2 μM erlotinib or the indicated PSs. The cell density was photographically recorded at the beginning and end of the culture period. The cell-associated PSs were determined by fluorescence imaging.

SMILES	substrate of ABCG2 (ABCG2 [1])	PDT efficacy with and without Gleevec (ABCG2 [1]; MTT assay)	uptake of PS on addition of Gleevec (ABCG2 [2])	retention by HNSCC cells in 3-D co-culture (HNSCC cells)	time of optimal/maximum tumor uptake post-injection (UMUC3 tumors [3])	long-term cure compared to HPPH-PDT alone (UMUC3 tumors [4])	uptake of PS on addition of Gleevec (ABCG2 [5])	growth inhibition (HN-85-1-3 cells)
CCCCCCOC(C)c1c(C)c2cc3nc(c4c5[nH]c(cc6nc(cc1[nH]2)C(C)=C6CC)c(C)c5C(=O)C4)[C@@H](CCC(=O)O)[C@@H]3C (some centres unmarked) [HPPH, 2-(1-Hexyloxyethyl)-2-devinyl pyropheophorbide-a]	substrates of ABCG2	enhancement of PDT efficacy	did not show any significant increase	low retention	24 h	improved long-term cure	significantly increased	
C#Cc1cccc(Nc2ncnc3cc(OCCOC)c(OCCOC)cc23)c1 [erlotinib]								cytostatic action
